Reference: patent US4382094A, “Reduced naphthalenes, their preparation and use” (Beecham Group Limited, priority 1980, dated 1983)

Tested on: ear, irritant solution of 1% croton oil
Experiment: topical anti-inflammatory activity, croton oil rat ear model (Fregnan and Torsello)
Assay type: in vivo, Rats, Charles River Wistar Strain, female
Details: 6 hours
Protocol: Compounds were tested for anti-inflammatory activity in a topical model based on that described by Fregnan G. B. and Torsello, A. L. (1975), Current Therapeutic Research 17, No. 4, 375-381. In outline the method is as follows:
Rats, Charles River Wistar Strain, female, 10/group. Weight range 200-240 g.
Irritant solution applied consists of 1% croton oil in tetrahydrofuran. 0.05 ml is placed on each ear, compound being included in the irritant solution on one ear. 6 hours later the ears are removed by cutting along the hairline and weighed.
-ve controls--no irritant solution.
+ve controls--irritant solution on both ears.

[1] = Rattus norvegicus, 2 mg/ear, topical, compound in irritant solution, read-out: Treated Ear % inhibition
[2] = Rattus norvegicus, topical, compound in irritant solution, read-out: Treated Ear % inhibition
[3] = 3.0 mg/ear on the other (treated) ear

SMILES | inhibition in vivo at 2 mg/ear [1] [%] | also measured
CC12CCC(=O)C=C1CCC(=Cc1ccc([N+](=O)[O-])cc1)C2=O (stereo not drawn) [Compound 7, 4-[(3,4,8,8a-Tetrahydro-8a-methyl-1,6-dioxo(2H,7H)-naphthalen-2-yl)methylidene]nitrobenzene] | 81 | –
CC12CCC(=O)C=C1CCC(=Cc1cccc(Cl)c1)C2=O (stereo not drawn) [Compound 5, 2-(3-Chlorobenzylidene)-3,4,8,8a-tetrahydro-8a-methyl-1,6-(2H,7H)-naphthalenedione] | 41 | –
CC12CCC(=O)C=C1CCC(=Cc1ccccc1)C2O (stereo not drawn) [Compound 14, 6-Benzylidene-4,4a,5,6,7,8-hexahydro-5-hydroxy-4a-methyl-2(3H)-naphthalenon] | – | inhibition in vivo at 1.5 mg/ear [2]: 107%
CC12CCC(=O)C=C1CCC(=Cc1ccc(Cl)cc1)C2=O (stereo not drawn) [Compound 3, 2-(4-Chlorobenzylidene)-3,4,8,8a-tetrahydro-8a-methyl-1,6-(2H,7H)-naphthalenedione] | 63 | –
CC12CCC(=O)C=C1CCC(=Cc1ccccc1)C2=O (stereo not drawn) [Compound 1, 2-Benzylidene-3,4,8,8a-tetrahydro-8a-methyl-1,6(2H,7H)-naphthalenedione] | – | Non-Treated Ear % inhibition [3]: -1%; Non-Treated Ear wt. [3]: 136.5 ± 5.80 mg; inhibition in vivo at 3 mg/ear (Rattus norvegicus, 3.0 mg/ear, topical, compound in irritant solution, read-out: Treated Ear % inhibition): 70%
COc1ccc(C=C2CCC3=CC(=O)CCC3(C)C2=O)cc1 (stereo not drawn) [Compound 11, 2-(4-Methoxybenzylidene)-3,4,8,8a-tetrahydro-8a-methyl-1,6(2H,7H)-naphthalenedione] | 95 | –
CN(C)c1ccc(C=C2CCC3=CC(=O)CCC3(C)C2=O)cc1 (stereo not drawn) [Compound 8, 2-(4-Dimethylaminobenzylidene)-3,4,8,8a-tetrahydro-8a-methyl-1,6(2H,7H)-naphthalenedione] | – | inhibition in vivo at 1.5 mg/ear [2]: 99%
CC12CCC(=O)C=C1CCC(=Cc1ccc3c(c1)OCO3)C2=O (stereo not drawn) [Compound 9, 2-(3,4-Methylenedioxybenzylidene)-3,4,8,8,a-tetrahydro-8a-methyl-1,6(2H,7H)-naphthalenedione] | 100 | –
CC12CCC(=O)C=C1CCC(=Cc1cccc(O)c1)C2=O (stereo not drawn) [Compound 10, 2-(3-Hydroxybenzylidene)3,4,8,8a-tetrahydro-8a-methyl-1,6(2H,7H)-naphthalenedione] | 98 | –
CC12CCC(=O)C=C1CCC(=Cc1cccs1)C2=O (stereo not drawn) [Compound 2, 2-(2-Thienylmethylidene)-3,4,8,8a-tetrahydro-8a-methyl-1,6(2H,7H)-naphthalenedione] | 71 | –
CC12CCC(=O)C=C1CCC(=Cc1ccc(C#N)cc1)C2=O (stereo not drawn) [Compound 6, 4-[(3,4,8,8a-Tetrahydro-8a-methyl-1,6-dioxo(2H,7H)-naphthalen-2-yl)methylidene]benzonitrile] | 53 | Treated Ear wt. (2 mg/ear, topical, * p<0.05 vs control (Students t test)): 87.2 mg
CC12CCC(=O)C=C1CCC(=Cc1ccco1)C2=O (stereo not drawn) [Compound 4, 2-(2-Furylmethylidene)-3,4,8,8a-tetrahydro-8a-methyl-1,6(2H,7H)-naphthalenedione] | 44 | –
